Here are results for 6 compounds from PMC4052304, “New Benzoxazine Secondary Metabolites from an Arctic Actinomycete” (Marine Drugs, 2014).

Where two headings read alike, the source gives them in different places.

A word on the IC50: it is the concentration at which inhibition is half-maximal.

Series [1] deals with Candida albicans isocitrate lyase (ICL) (Candida albicans, UniProt Q9P8Q7). The series is described as follows: Inhibition of the isocitrate lyase (ICL) activity assay. The format is biochemical. The settings on record: for inhibitory activity towards ICL (in words): even at high concentrations (100 μg/mL). On the procedure:
The formation of glyoxylate phenylhydrazone in the presence of phenylhydrazine and isocitrate was measured spectrophotometrically at 324 nm. The enzyme reaction mixture (1 mL) included 1.27 mM threo-DS (+) isocitrate, 3.75 mM MgCl2, 4.1 mM phenylhydrazine, 20 mM sodium phosphate buffer (pH 7.0), and 2.5 μg/mL purified C. albicans ICL. The reaction was performed at 37 °C for 30 min, and the protein concentration was measured using the Bradford method and a Bio-Rad protein assay Kit (Bio-Rad, Alfred Nobel Dr. Hercules, CA, USA) with bovine serum albumin as a standard.

The test system of series [2] is HCT116, A549, SNU638, SK-HEP1, K562 and MDA-MB231 human carcinoma cell lines. The series is described as follows: Anti-proliferative activity, SRB assay, panel of six human carcinoma cell lines. It counts as cell-based. The settings on record: 72 h. Here is the method:
(§1) Cell proliferation was analyzed using the sulforhodamine B (SRB) assay. Six human cancer cell lines (HCT116, MDA-MB231, SNU638, A549, K562, and SK-HEP1 at 3 × 10^4 cells/mL) were seeded in 96-well plates at different compound concentrations before incubating at 37 °C in a humidified atmosphere with 5% CO2. After 72 h of treatment, the cells were fixed with a 10% TCA solution for 1 h before staining the cellular proteins with 0.4% SRB in 1% acetic acid. The stained cells were dissolved in 10 mM Tris buffer (pH 10.0). The effects of the compounds on cell proliferation were calculated as percentages relative to the solvent-treated control. In addition, the IC50 values were determined by nonlinear regression analysis (percent survival versus concentration).
(The SRB assay estimates cell density from bound dye.)

Series [3] has as its system K562 (leukemia cancer) cells. The series can be described thus: Anti-proliferative activity, SRB assay, K562. The settings on record: Homo sapiens, K562, 72 h, read-out: IC50, cytotoxicity against K562. The format is cell-based. On the procedure:
as §1

The subject of series [4] is HCT116 (colon cancer) cells. The series is described as follows: Anti-proliferative activity, SRB assay, HCT116. The conditions noted are these: Homo sapiens, HCT-116, 72 h, read-out: IC50, cytotoxicity against HCT116. It counts as cell-based. Here is the method:
as §1

Series [5] deals with MDA-MB231 (breast cancer) cells. The series can be described thus: Anti-proliferative activity, SRB assay, MDA-MB231. The format is cell-based. The conditions noted are these: Homo sapiens, MDA-MB-231, 72 h, read-out: IC50, cytotoxicity against MDA-MB231. On the procedure: as §1
The test system of series [6] is SNU638 (gastric cancer) cells. The series can be described thus: Anti-proliferative activity, SRB assay, SNU638. The conditions noted are these: Homo sapiens, SNU-638, 72 h, read-out: IC50, cytotoxicity against SNU638. The format is cell-based. On the procedure:
as §1

In a further series the test system is A549 (lung cancer) cells. The series can be described thus: Anti-proliferative activity, SRB assay, A549. It counts as cell-based. The conditions noted are these: Homo sapiens, A549, 72 h, read-out: IC50, cytotoxicity against A549. Here is the method:
as §1

Series [7] has as its system SK-HEP1 (liver cancer) cells. The series can be described thus: Anti-proliferative activity, SRB assay, SK-HEP1. The conditions noted are these: Homo sapiens, SK-HEP1, 72 h, read-out: IC50, cytotoxicity against SK-HEP1. The format is cell-based. Here is the method: as §1
The mark [8] stands for this setting: purified C. albicans ICL 2.5 μg/mL, 37 °C, 30 min, pH 7.0, read-out: IC50, inhibition of Candida albicans isocitrate lyase (ICL).

Candida albicans isocitrate lyase (ICL), sequence (Q9P8Q7 whole entry): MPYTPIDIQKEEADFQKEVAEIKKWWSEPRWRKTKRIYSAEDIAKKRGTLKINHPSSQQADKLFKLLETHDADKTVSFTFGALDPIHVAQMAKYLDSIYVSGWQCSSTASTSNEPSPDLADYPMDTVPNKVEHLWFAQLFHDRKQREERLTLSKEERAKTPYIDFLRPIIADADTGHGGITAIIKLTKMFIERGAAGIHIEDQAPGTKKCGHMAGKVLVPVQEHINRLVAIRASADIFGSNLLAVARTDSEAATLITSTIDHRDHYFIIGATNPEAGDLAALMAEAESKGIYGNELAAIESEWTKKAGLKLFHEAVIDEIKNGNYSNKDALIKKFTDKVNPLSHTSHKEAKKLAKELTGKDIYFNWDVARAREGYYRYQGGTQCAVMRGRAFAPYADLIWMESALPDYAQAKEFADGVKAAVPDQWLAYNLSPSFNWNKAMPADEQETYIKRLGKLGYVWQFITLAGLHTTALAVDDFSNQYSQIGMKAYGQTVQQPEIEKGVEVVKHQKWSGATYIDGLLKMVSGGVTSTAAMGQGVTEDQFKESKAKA

Take `C=C1Oc2cc(OC)cc(C(=O)OC[C@H]3O[C@H](OC[C@H]4O[C@H](O)[C@H](O)[C@@H](O)[C@@H]4O)[C@H](O)[C@@H](O)[C@@H]3O)c2NC1=O` [Compound 1, arcticoside]: the IC50 in series [1] (setting [8]) worked out at 30.4 µM. For the same compound, the “cytotoxicity against human carcinoma cell lines (in words)” value in series [2] was “did not display notable inhibitory activity”.

Regarding `C=C1Oc2cc(OC)cc(C(=O)O[C@H]3COC(=O)C[C@H](N)c4cc(O)c(c(Cl)c4)O[C@@H]4c5ccc3cc5C3=CC=C[C@@]34O[C@@H]3OC(C)(C)[C@@H](N(C)C)[C@@H](O)[C@H]3O)c2NC1=O` [Compound 3, C-1027 chromophore-III], the IC50 in series [3] was 4.8 µM; in series [4] it was 0.6 µM; in series [5], 44 µM; in series [6], 1.1 µM; in the series on A549 (lung cancer) cells, 2.2 µM; in series [1], 25.6 µM. In addition, in series [7], the IC50 stood at 0.9 µM.

Turning to `C=C1Oc2cc(OC)cc(C(=O)O[C@H]3COC(=O)C[C@H](N)c4cc(O)c(c(Cl)c4)O[C@@H]4c5ccc3c(Cl)c5C3=CC=C[C@@]34O[C@@H]3OC(C)(C)[C@@H](N(C)C)[C@@H](O)[C@H]3O)c2NC1=O` [Compound 2, C-1027 chromophore-V], the IC50 was determined as 25.1 µM in series [3]; 2.7 µM in series [4]; 0.9 µM in series [5]; 9.8 µM in series [6]; 14.7 µM in the series with A549 (lung cancer) cells; 37.9 µM in series [1]. Also, in series [7], the IC50 was found to be 7.9 µM.

For `CC(=O)N[C@H]1CC(=O)OC[C@H](O)c2ccc3c(c2Cl)C2=CC=C[C@]2(O[C@@H]2OC(C)(C)[C@@H](N(C)C)[C@@H](O)[C@H]2O)[C@@H]3Oc2c(O)cc1cc2Cl` [Compound 4, fijiolide A], in series [1], the “inhibitory activity towards ICL (in words)” value is on record as “no activity”.

For the compound `O=C(O)CC[N+](=O)[O-]` [3-nitropropionic acid, reference compound], in series [1] (setting [8]), the IC50 worked out at 35.2 µM.

Turning to `CN(C)[C@H]1[C@@H](O)[C@@H](O)[C@H](O[C@]23C=CC=C2c2c4ccc(c2Cl)[C@@H](O)COC(=O)C[C@H](N)c2cc(O)c(c(Cl)c2)O[C@H]43)OC1(C)C` [Compound 5, fijiolide B], the “inhibitory activity towards ICL (in words)” value in series [1] is recorded as “no activity”.
